In publication PMC11767077, “Experimental Validation of Antiobesogenic and Osteoprotective Efficacy of Ginsenoside CK via Targeting Lipid and Atherosclerosis Pathways” (Life, 2024) one finds IC50 data, which are given here for 1 compound.

The target in the experiment is α-glucosidase. The experiment is described as follows: p-NPG colorimetric enzyme assay, […] nm, commercial α-glucosidase. The format is biochemical.

Converted amounts (≈) assume the structure as drawn.

In the case of `CC(C)=CCC[C@](C)(O[C@@H]1O[C@H](CO)[C@@H](O)[C@H](O)[C@H]1O)[C@H]1CC[C@]2(C)[C@@H]1[C@H](O)C[C@@H]1[C@@]3(C)CC[C@H](O)C(C)(C)[C@@H]3CC[C@]12C` [CK, ginsenoside CK], the half-maximal inhibitory concentration (IC50) – broadly, the concentration at which inhibition is half-maximal – was found to be 22.83 µg/mL (≈ 36.7 µM).
